pIC50: −log10 of the molar value.
Target: T1, human P2X3 (Homo sapiens, UniProt P56373)
T1 construct: expressed in transfected cells
T1 sequence (P56373 1-397): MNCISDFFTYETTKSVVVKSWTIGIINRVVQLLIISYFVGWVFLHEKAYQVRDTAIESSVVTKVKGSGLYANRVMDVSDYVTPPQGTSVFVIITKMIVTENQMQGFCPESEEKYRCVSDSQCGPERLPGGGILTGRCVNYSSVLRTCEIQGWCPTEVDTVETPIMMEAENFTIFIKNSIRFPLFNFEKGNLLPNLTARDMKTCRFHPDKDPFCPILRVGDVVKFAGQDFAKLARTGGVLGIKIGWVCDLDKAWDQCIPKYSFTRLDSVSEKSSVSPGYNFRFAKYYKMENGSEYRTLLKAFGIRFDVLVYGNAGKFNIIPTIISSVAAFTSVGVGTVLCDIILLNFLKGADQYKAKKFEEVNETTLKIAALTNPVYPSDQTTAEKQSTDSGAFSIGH
Experiment: Intracellular Calcium Measurement to Assess Antagonist Affinity (FLIPR, Fluo-4, α,β-meATP agonist)
Assay type: cell-based
Settings: cells expressing human P2X3; agonist α,β-meATP at EC50; antagonist added 10 min before agonist
From the text: Generation of a Human P2X3 and P2X2/3 Stable Cell Line—Human P2X3 receptor cDNA (Accession number NM_002559) was subcloned as a 5′XhoI and 3′HindIII fragment into the expression vector pcDNA5/FRT (Invitrogen). Human P2X2 receptor cDNA (Accession number NM_174873) was subcloned as a 5′EcoRI and 3′NotI fragment into the expression vector pIRESneo2 (BD Biosciences Clontech). The human P2X3 expression construct was transfected using Lipofectamine 2000 (Invitrogen) into Flp-in-293 cells (Invitrogen) according to the manufacturer's directions. Cells positive for flp-mediated recombination of […] P2X3 were selected using 150 μg/ml hygromycin. […]
Intracellular Calcium Measurement to Assess Antagonist Affinity—A fluorescent imaging plate reader (FLIPR; Molecular Devices) was used to monitor intracellular calcium levels using the calcium-chelating dye Fluo-4 (Molecular Probes). The excitation and emission wavelengths used to monitor fluorescence were 488 nm and 530 nm, respectively. […] During this period fluorescence data is collected at 3 sec intervals followed by 10 sec intervals. […] Following agonist addition fluorescence was measured at 5 sec intervals and analyzed based on the increase in peak relative fluorescence units (RFU) compared to the basal fluorescence. […]

pIC50: 6.70
Structure (SMILES): Cc1ccc(-c2cc(C(=O)N[C@H](C)c3ccc(C(F)(F)F)nc3)cc3nncn23)cc1 [Example 4.3, 5-(4-Methylphenyl)-N-{(1R)-1-[6-(trifluoromethyl)pyridin-3-yl]ethyl}[1,2,4]triazolo[4,3-a]pyridine-7-carboxamide]

Source: patent US9238647B2, “P2X3 receptor antagonists for treatment of pain” (Merck Sharp & Dohme Corp., priority 2009, dated 2016)
